Measured values published in patent publication US20100076013A1, “Methods of Treatment” (Novartis AG, priority 2006, published 2010).

Assays:
[1] = tested on: Mutant FLT3-expressing cells
Protocol: (§1) The IL-3-dependent murine hematopoietic cell line Ba/F3 are transduced with either FLT3-ITD or FLT3-D835Y-containing MSCV retroviruses harboring a neomycin selectable marker, and selected for resistance to neomycin. See Kelly et al. (2002). FLT3-ITD transduced cells are selected for growth in G418 (1 mg/mL). PKC412-resistant Ba/F3 cell lines, which express FLT3-ITD harboring a mutation in the ATP-binding pocket (F691L, A627T, G697R, N676D), are developed as described previously. See Cools et al. (2004). The human AML-derived, FLT3-ITD-expressing cell line, MV4; 11 [see Quentmeier et al. (2003)], is provided by Dr. Scott Armstrong, Dana Farber Cancer Institute, Boston, Mass. The human AML-derived, FLT3-ITD-expressing cell line, MOLM-13, is modified to express luciferase and provided as MOLM13-luc+ by Dr. Andrew Kung, Dana Farber Cancer Institute, Boston, Mass. All cell lines are cultured with 5% CO2 at 37° C., at a concentration of 2×10^5 to 5×10^5 in RPMI (Mediatech, Inc., Herndon, Va.) with 10% fetal calf serum and supplemented with 1% glutamine. Parental Ba/F3 cells expressing wild-type FLT3 are similarly cultured with 15% WEHI-conditioned medium as a source of IL-3. All transfected cell lines are cultured in media supplemented with 1 mg/mL G418.

[2] = tested on: mutant FLT3-expressing cells; details: annexin-pi staining and caspase assays; effective concentrations in the micromolar range
Protocol: (§2) The trypan blue exclusion assay has been previously described [see Weisberg et al. (2002)], and is used to determine proliferation of cells cultured in the presence and absence of LBW242. Cell viability is reported as percentage of control (untreated) cells. Error bars represent the standard error of the mean for each data point. Apoptosis of drug-treated cells is measured using the Annexin-V-Fluos Staining Kit (Boehringer Mannheim, Indianapolis, Ind.), as previously described. See Weisberg et al. (2002).

[3] = tested on: PKC412-sensitive and resistant mutant FLT3-expressing cells
Protocol: as §2

D835Y-Ba/F3 cells = experiment: Trypan blue exclusion proliferation assay; format: cell-based, murine; details: PKC412-sensitive line D835Y-Ba/F3; three-day treatment, FIG. 3
Text: (§3) See Kelly et al. (2002). […] See Cools et al. (2004).
(§4) See Weisberg et al. (2002).

G697R-Ba/F3 [4] = experiment: Trypan blue exclusion proliferation assay; format: cell-based, murine; details: PKC412-resistant line G697R-Ba/F3; FIGS. 1-2
Text: as §3, §4

[5] = tested on: FLT3-ITD-Ba/F3 cells expressing firefly luciferase; experiment: Mouse model of acute leukemia, tumor burden by bioluminescence imaging; format: in vivo, NCr nude mice; details: for Student t-test p of bioluminescence (tumor burden), vehicle versus compound alone: 50 mg/kg oral gavage, NCr nude mice
Protocol: FIG. 4 illustrates NCR nude mice injected with 800,000 Ba/F3-FLT3-ITD-luc+ cells via IV tail vein, and then treated for up to 10 days by oral gavage with vehicle (NMP+PEG300), LBW242 (50 mg/kg).

FLT3-ITD-Ba/F3 [6] = details: 1 μM, following 2 days and 3 days, respectively
Protocol: as §1, with “Parental Ba/F3 cells expressing wild-type FLT3 are similarly cultured with 15% WEHI-conditioned medium as a source of IL-3. All transfected cell lines are cultured in media supplemented with 1 mg/mL G418.” left out
The trypan blue exclusion assay has been previously described [see Weisberg et al. (2002)], and is used to determine proliferation of cells cultured in the presence and absence of LBW242. […] Apoptosis of drug-treated cells is measured using the Annexin-V-Fluos Staining Kit (Boehringer Mannheim, Indianapolis, Ind.), as previously described. […]

G697R-Ba/F3 [7] = experiment: Induction of apoptosis (Annexin-V staining) and caspase activity; format: cell-based, murine; details: 1 μM, following 2 days and 3 days, respectively
Text: as §3, §4

[8] = tested on: wild-type FLT3-expressing Ba/F3 cells; details: FIG. 3
Protocol: as §1
(§5) N-[1-cyclohexyl-2-oxo-2-(6-phenethyl-octahydro-pyrrolo[2,3-c]pyridin-1-yl-ethyl]-2-methylamino-propionamide is synthesized by Novartis Pharma AG, Basel, Switzerland, and dissolved in DMSO to make 10 mM stock solutions. Serial dilutions are then made, also in DMSO, to obtain final dilutions for cellular assays.
as §2

FLT3-ITD-Ba/F3 [9] = details: PKC412-sensitive line FLT3-ITD-Ba/F3; FIGS. 1-2
Protocol: as §1, §5, §2

CCRF-HSB-2 = experiment: CellTiter-Glo cell viability assay; format: cell-based; details: Homo sapiens; CCRF-HSB-2, T-ALL; 72 hours
Protocol: (§6) The EC50s were determined using CellTiter-Glo (Promega), a bioluminescent, cell viability assay measuring ATP levels in viable cells. Cells were plated in assay plates and incubated with a range of compound concentrations for 72 hours. Cells were lysed and ATP levels were determined using CellTiter-Glo reagent on a luminometer according to manufacturer's instructions. EC50 refers to the concentration of compound that inhibited 50% of cell growth.

EM-3 = experiment: CellTiter-Glo cell viability assay; format: cell-based; details: EM-3, CML; 72 hours
Protocol: as §6

Karpas-299 = experiment: CellTiter-Glo cell viability assay; format: cell-based; details: Homo sapiens; Karpas-299, ALCL; 72 hours
Protocol: as §6

ML-2 = experiment: CellTiter-Glo cell viability assay; format: cell-based; details: Homo sapiens; ML-2, AML; 72 hours
Protocol: as §6

KARPAS-45 = experiment: CellTiter-Glo cell viability assay; format: cell-based; details: KARPAS-45, T-ALL; 72 hours
Protocol: as §6

CEM/C2 = experiment: CellTiter-Glo cell viability assay; format: cell-based; details: Homo sapiens; CEM/C2, T-ALL; 72 hours
Protocol: as §6

JURL-MK2 = experiment: CellTiter-Glo cell viability assay; format: cell-based; details: JURL-MK2, CML; 72 hours
Protocol: as §6

LAMA-84 = experiment: CellTiter-Glo cell viability assay; format: cell-based; details: Homo sapiens; LAMA-84, CML; 72 hours
Protocol: as §6

KE-37 = experiment: CellTiter-Glo cell viability assay; format: cell-based; details: Homo sapiens; KE-37, T-ALL; 72 hours
Protocol: as §6

NALM-1 = experiment: CellTiter-Glo cell viability assay; format: cell-based; details: NALM-1, CML; 72 hours
Protocol: as §6

NOMO-1 = experiment: CellTiter-Glo cell viability assay; format: cell-based; details: Homo sapiens; NOMO-1, AML; 72 hours
Protocol: as §6

Kasumi-1 = experiment: CellTiter-Glo cell viability assay; format: cell-based; details: Homo sapiens; Kasumi-1, AML; 72 hours
Protocol: as §6

MOLT-3 = experiment: CellTiter-Glo cell viability assay; format: cell-based; details: Homo sapiens; MOLT-3, T-ALL; 72 hours
Protocol: as §6

RL = experiment: CellTiter-Glo cell viability assay; format: cell-based; details: Homo sapiens, B-NHL, 72 hours
Protocol: as §6

CCRF-CEM = experiment: CellTiter-Glo cell viability assay; format: cell-based; details: Homo sapiens, T-ALL, 72 hours
Protocol: as §6

CEM/C1 = experiment: CellTiter-Glo cell viability assay; format: cell-based; details: CEM/C1, T-ALL; 72 hours
Protocol: as §6

JK-1 = experiment: CellTiter-Glo cell viability assay; format: cell-based; details: JK-1, CML; 72 hours
Protocol: as §6

KU812 = experiment: CellTiter-Glo cell viability assay; format: cell-based; details: Homo sapiens; KU812, CML; 72 hours
Protocol: as §6

EM-2 = experiment: CellTiter-Glo cell viability assay; format: cell-based; details: Homo sapiens; EM-2, CML; 72 hours
Protocol: as §6

EOL-1 = experiment: CellTiter-Glo cell viability assay; format: cell-based; details: Homo sapiens, EOL1; EOL-1, AML; 72 hours
Protocol: as §6

OCI-AML3 = experiment: CellTiter-Glo cell viability assay; format: cell-based; details: Homo sapiens, OCI-AML-3, 72 hours
Protocol: as §6

L-428 = experiment: CellTiter-Glo cell viability assay; format: cell-based; details: Homo sapiens; L-428, HL; 72 hours
Protocol: as §6

PL-21 = experiment: CellTiter-Glo cell viability assay; format: cell-based; details: PL-21, AML; 72 hours
Protocol: as §6

SR = experiment: CellTiter-Glo cell viability assay; format: cell-based; details: Homo sapiens, LCIL, 72 hours
Protocol: as §6

Reh = experiment: CellTiter-Glo cell viability assay; format: cell-based; details: Homo sapiens, B-ALL, 72 hours
Protocol: as §6

NB-4 = experiment: CellTiter-Glo cell viability assay; format: cell-based; details: Homo sapiens; NB-4, AML; 72 hours
Protocol: as §6

JURL-MK1 = experiment: CellTiter-Glo cell viability assay; format: cell-based; details: JURL-MK1, CML; 72 hours
Protocol: as §6

HSB-2 = experiment: CellTiter-Glo cell viability assay; format: cell-based; details: HSB2; HSB-2, T-ALL; 72 hours
Protocol: as §6

D1.1 = experiment: CellTiter-Glo cell viability assay; format: cell-based; details: D1.1, T-ALL; 72 hours
Protocol: as §6

MV-4-11 = experiment: CellTiter-Glo cell viability assay; format: cell-based; details: Homo sapiens, MV4-11; MV-4-11, AML; 72 hours
Protocol: as §3, §6

CO[C@@H]1[C@H](N(C)C(=O)c2ccccc2)C[C@H]2O[C@]1(C)n1c3ccccc3c3c4c(c5c6ccccc6n2c5c31)C(=O)NC4 [PKC412, reference compound]
rescue of treated cells from cytotoxic effects by WEHI (source of IL-3) [1]: fully rescued

CNC(C)C(=O)NC(C(=O)N1CCC2CCN(CCc3ccccc3)CC21)C1CCCCC1 (centres unmarked) [N-[1-cyclohexyl-2-oxo-2-(6-phenethyl-octahydro-pyrrolo[2,3-c]pyridin-1-yl-ethyl]-2-methylamino-propionamide]
induction of apoptosis [2]: modestly observed | inhibition of cells in vitro [3]: inhibits | rescue of treated cells from cytotoxic effects by WEHI (source of IL-3) [1]: did not rescue | doses at which activity is displayed against the cells in culture (D835Y-Ba/F3 cells): ≥ 1 µM | doses at which activity is displayed against the cells in culture (G697R-Ba/F3 [4]): ≥ 1 µM | Student t-test p of bioluminescence (tumor burden), vehicle versus compound alone ([5]; day 5 post-IV injection): ≤ 0.0773 | Student t-test p of bioluminescence (tumor burden), vehicle versus compound alone ([5]; day 7 post-IV injection): ≤ 0.05625 | tolerability of doses effective against mutant FLT3 ([5]; in vivo): well-tolerated | induction of apoptosis and caspase activity (FLT3-ITD-Ba/F3 [6]): found | induction of apoptosis and caspase activity (G697R-Ba/F3 [7]): found | concentrations that led to death of the cells [8]: > 1 µM | inhibitory effects on cell growth ([8]; concentrations ≦1 μM): no inhibitory effects | doses at which activity is displayed against the cells in culture (FLT3-ITD-Ba/F3 [9]): ≥ 1 µM

CN[C@@H](C)C(=O)N[C@H](C(=O)N1CCC[C@H]1c1nc(C(=O)c2ccc(F)cc2)cs1)C1CCCCC1 [(S)—N—((S)-1-Cyclohexyl-2-{(S)-2-[4-(4-fluoro-benzoyl)-thiazol-2-yl]-pyrrolidin-1-yl}-2-oxo-ethyl)-2-methylamino-propionamide]
EC50 (CCRF-HSB-2): 6.3 µM | EC50 (EM-3): 13.8 µM | EC50 (Karpas-299): 10.8 µM | EC50 (ML-2): 0.015 µM | EC50 (KARPAS-45): 10.5 µM | EC50 (CEM/C2): 3.83 µM | EC50 (JURL-MK2): 12.7 µM | EC50 (LAMA-84): 0.203 µM | EC50 (KE-37): 5.1 µM | EC50 (NALM-1): 3.54 µM | EC50 (NOMO-1): 4.08 µM | EC50 (Kasumi-1): 8.64 µM | EC50 (MOLT-3): 10.2 µM | EC50 (RL): 9.68 µM | EC50 (CCRF-CEM): 0.676 µM | EC50 (CEM/C1): 4.6 µM | EC50 (JK-1): 3.49 µM | EC50 (KU812): 1.94 µM | EC50 (EM-2): 0.696 µM | EC50 (EOL-1): 1.66 µM | EC50 (OCI-AML3): 4.08 µM | EC50 (L-428): 7.3 µM | EC50 (PL-21): 3.55 µM | EC50 (SR): 11.6 µM | EC50 (Reh): 0.0791 µM | EC50 (NB-4): 0.0146 µM | EC50 (JURL-MK1): 11.8 µM | EC50 (HSB-2): 0.4 µM | EC50 (D1.1): 7.35 µM | EC50 (MV-4-11): 14 µM
